Patent US20170312274A1, “METHOD FOR TREATING A BRAIN TUMOUR” (The Hospital for Sick Children, priority 2014, published 2017)

Key:
[1] = system: GNS cells (GBM-derived neural stem cells); assay: Secondary screen / dose response curve, Alamar Blue cell viability, five days; type: cell-based, human; conditions: for IC50: six GNS and four NS lines, IC50 based on approximate observed value, read-out: potency (IC50), growth inhibition of GNS cells
Experimental: (§1) GNS and NS lines were grown as an adherent monolayer culture in serum free medium as described previously (Pollard et al. 2009. Cell stem cell 4, 568-580). Primary tumour cells were freshly dissociated from the patient sample in artificial cerebrospinal fluid followed by treatment with an enzyme cocktail at 37° C. (Singh et al. 2003. Cancer research 63, 5821-5828). BJ fibroblast, Daoy and C8-D1A and U-2 0S (ATCC) were maintained in DMEM with 10% FBS.
(§2) Cells were seeded in laminin-coated 384 well plates at a density of 2000 cells per well. Compounds were added at a concentration of approximately 5 μM and incubated with cells for five days at 37° C. Cell viability was assessed by measuring Alamar Blue incorporation according to the manufacturer's protocol (Invitrogen). Percent growth inhibition was calculated relative to the control DMSO wells.
(§3) The potency and selectivity of hits from the primary screen was tested in 8-point two-fold dilution series ranging from 50 μM-0.39 μM concentrations with more lines of GNS, NS and fibroblast. Experimental conditions were the same as in primary screen. IC50 was calculated based on an approximate observed value. Fold selectivity was calculated as IC50 of BJ/IC50 of any GNS cells with lowest IC50.

DRD4 receptor = target: T1, DRD4 receptor (Homo sapiens, UniProt P21917); assay: cAMP assay (ELISA-based) in GNS (G362) cells; type: cell-based; conditions: pretreatment 30 μM for 15 minutes, then forskolin 30 μM
T1 construct: endogenous in cells; host or cells: GNS line G362 (patient-derived glioblastoma neural stem cells)
T1 sequence (P21917 1-419): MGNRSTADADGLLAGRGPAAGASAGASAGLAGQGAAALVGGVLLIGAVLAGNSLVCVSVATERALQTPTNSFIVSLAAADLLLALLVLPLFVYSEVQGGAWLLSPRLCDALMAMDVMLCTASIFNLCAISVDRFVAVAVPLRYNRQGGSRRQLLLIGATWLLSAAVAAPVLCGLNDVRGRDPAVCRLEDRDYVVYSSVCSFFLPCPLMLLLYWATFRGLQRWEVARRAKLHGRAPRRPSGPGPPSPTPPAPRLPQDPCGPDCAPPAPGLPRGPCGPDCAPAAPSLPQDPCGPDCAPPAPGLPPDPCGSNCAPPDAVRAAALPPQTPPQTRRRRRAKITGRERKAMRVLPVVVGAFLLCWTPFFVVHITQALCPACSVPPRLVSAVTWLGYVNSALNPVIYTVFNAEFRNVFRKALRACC
Experimental: cAMP levels were measured with an ELISA-based cAMP assay kit purchased from Cell Signaling (#4439). GNS (G362) cells were seeded overnight in a 96 well plate and treated with forskolin (30 μM) for 15 minutes, or pretreated with DRD4 agonist A412997 (30 μM) for 15 minutes followed by forskolin treatment. Cells were lysed and processed as per manufacturer's protocol.

[2] = system: GNS cells (G411 and G362); assay: Autophagy markers (LC3B, p62) by western blot and immunofluorescence; type: cell-based, human; conditions: for levels of LC3B-II: L-741,742 10 μM, PNU 96415E 25 μM, G411 and G362; for LC3-II levels in the presence of chloroquine compared to control: chloroquine 30 μM, 48 h, G411; for autophagy substrate p62: treated GNS cells (G411)
Experimental: Western blots were performed using the following antibodies; anti-DRD4 antibody at 1:750 (Millipore# MABN125), anti-activated MAPK at 1:2500 (Promega#V803A), anti-ERK1/2 at 1:2000 (Promega#V114A), anti-βactin at 1:10,000 (Sigma), anti-LC3B at 1:1000 (Cell Signaling #3868), anti-p62 at 1:1000 (BD Bioscience), anti-LAMP1 at 1:2000 (Developmental Studies Hybridoma Bank), anti-mono and polyubiquitinylated protein conjugates (FK2) at 1:1000 (Enzo Life Sciences).

G481 cells = assay: Combination/synergy screen with temozolomide, alamar blue; type: cell-based, human; conditions: five days, COMPUSYN, CI <1 indicates synergism
Experimental: (§4) 2000 GNS cells (G362 and G481) were seeded in a 96 well plate and treated with a combination of 6-point 2-fold dose series of either L-741,742 (6.25 μM-0.39 μM) or PNU 96415E (25 μM-1.56 μM) with 10-point 2-fold dose series of temozolomide (100 μM-0.39 μM) in 60 point combination doses. The cells were incubated with a combination of the two drugs for five days and then checked for cell viability using the alamar blue assay. Combination index (CI) plot and CI value was calculated for 5 point dose series in each combination using the programme COMPUSYN. Data points taken for COMPUSYN analysis are temozolomide (100, 50, 25, 12.5 and 6.25 μM) in combination with either L-741,742 (6.25, 3.12, 1.56, 0.78 and 0.39 μM) or PNU 96415E (25, 12.5, 6.25, 3.12 and 1.56 μM).

G362 cells = assay: as above; type: cell-based, human; conditions: five days, COMPUSYN, CI <1 indicates synergism
Experimental: as §4

GNS cells = assay: Caspase 3/7 activity and cleaved PARP in treated GNS cells; type: cell-based, human
[3] = system: ERK1/2 phosphorylation in GNS (G362) cells; assay: Phospho-kinase antibody array; type: cell-based, human; conditions: L-741,742 10 μM, PNU 25 μM, 24 h
Experimental: A human phospho-kinase antibody array was purchased from R&D systems (Cat# ARY003). This array contains capture antibodies for 43 kinases in duplicate on nitrocellulose membrane. GNS (G362) and NS (hf5205) lines were treated with L-741,742 (10 μM) and PNU 96415E (25 μM) along with a DMSO control for 24 h, and cells were then processed according to the manufacturer's protocol. Signal intensity was quantified using ImageJ.

G411 and G362 cells = assay: Cell cycle analysis by flow cytometry of DNA content; type: cell-based, human; conditions: L-741,742 10 μM, PNU 96415E 25 μM, time dependent
[4] = system: freshly isolated primary GBM patient tumour cells; assay: Primary in vitro limiting dilution assay (LDA), neurosphere formation; type: cell-based, human; conditions: L-741,742 10 μM, PNU 96415E 25 μM, 14 days, n=3 patient tumours
Experimental: (§5) Limiting dilution assay was performed as described previously (Tropepe et al., 1999. Developmental Biology 208, 166-188). Primary tumours were dissociated into single cell suspension and seeded into a 96-well plate with 10 point-2 fold serial dilution starting from 2000 cells to 4 cells/well, 6 wells for each dilution per plate. Each well was scored for neurosphere formation after 14 days of incubation. Percent of wells not containing spheres for each cell density was calculated and plotted against the cells per well, regression lines were plotted and x-intercept value at 0.37 was calculated at 95% confidence interval using Sigma Plot, which gives the number of cells required to form at least one neurosphere.

[5] = system: colony forming cells of in vivo treated tumours; assay: In vitro LDA of in vivo treated xenograft tumours; design: species or system mouse; conditions: tumours treated in vivo 20 mg/kg i.p.; vehicle treated tumours 1 in every 11 cells
Experimental: All mouse procedures were approved by the Hospital for Sick Children's Animal Care Committee. To validate the in vivo effect of L-741,742 and PNU 96415E, 2×10^5 GNS cells in 200 μl of PBS and matrigel (1:1) were injected subcutaneously into flanks of non-obese diabetic/severe combined immunodeficient (NOD/SCID) female mice. 8 mice (2 tumours per mouse except for one mouse in control group that has one tumour) were maintained for each group; control (15 tumours), L-741,742 (16 tumours) and PNU 96415E (16 tumours). L-741,742 and PNU 96415E were dissolved in 40% 2 hydroxy β-cyclodextrin (Sigma). Mice were treated three days after tumour implantation. […] Tumour growth was monitored with microcalipers until tumour volume reached 17 mm in any one tumour from any group and all mice were sacrificed at the same end point. Dissected tumour volume was measured and mass was determined by weighing.
as §5, with “Primary tumours were dissociated into single cell suspension and seeded into a 96-well plate with 10 point-2 fold serial dilution starting from 2000 cells to 4 cells/well, 6 wells for each dilution per plate.” left out

[6] = system: GNS cells (G362) subcutaneous tumour; assay: Patient derived subcutaneous xenograft (G362); type: in vivo, mouse; conditions: 20 mg/kg i.p., five days on and two days off, vs vehicle
Experimental: All mouse procedures were approved by the Hospital for Sick Children's Animal Care Committee. To validate the in vivo effect of L-741,742 and PNU 96415E, 2×10^5 GNS cells in 200 μl of PBS and matrigel (1:1) were injected subcutaneously into flanks of non-obese diabetic/severe combined immunodeficient (NOD/SCID) female mice. 8 mice (2 tumours per mouse except for one mouse in control group that has one tumour) were maintained for each group; control (15 tumours), L-741,742 (16 tumours) and PNU 96415E (16 tumours). L-741,742 and PNU 96415E were dissolved in 40% 2 hydroxy β-cyclodextrin (Sigma). Mice were treated three days after tumour implantation. Both L-741,742 and PNU 96415E were injected (20 mg/kg) i.p for 5 days on two days off until the end point. Control group was injected with 40% 2 hydroxy β-cyclodextrin. Tumour growth was monitored with microcalipers until tumour volume reached 17 mm in any one tumour from any group and all mice were sacrificed at the same end point. Dissected tumour volume was measured and mass was determined by weighing.

[7] = system: non-NS control cells (BJ fibroblast, Daoy, U-2 0S, C8-D1A); assay: Dose response cell viability in non-NS control cell lines; type: cell-based; conditions: highest concentration tested 50 μM
Experimental: as §1, §2, §3

[8] = dose response series 0.39-50 μM

Br.Br.CN(CCc1ccc(Cl)c(Cl)c1)[C@@H]1CCCC[C@@H]1N1CCCC1 (racemic) [cis-(±)-N-Methyl-N-[2-(3,4-dichlorophenyl)ethyl]-2-(1-pyrrolidinyl)cyclohexamine 2HBr]
Fold selectivity towards GNS and NS cells compared to fibroblasts (IC50 of BJ/IC50 of any of the NS or GNS lines that showed the lowest IC50) ([1]; dose response series 0.39-50 μM, five days): 8 fold

Cc1cccc(NC(=O)CN2CCC(c3ccccn3)CC2)c1 [A412997]
block of forskolin-induced cAMP response (DRD4 receptor): 38%

Cc1c(C2CCN(CCc3ccccc3)CC2)noc1-c1ccc(Cl)cc1 [L-741,742]
selectivity against GNS cells compared to NS cells [1, 8]: 8 fold
IC50 [1]: 1.5 to 6.2 µM
levels of LC3B-II [2]: increase
LC3-II levels in the presence of chloroquine compared to control [2]: did not increase
autophagy substrate p62 [2]: accumulated
lowest combination index (CI) value in combination with TMZ (G481 cells): 0.28
lowest combination index (CI) value in combination with TMZ (G362 cells): 0.29
caspase 3/7 activity or cleaved PARP (GNS cells): no increase
reduction of ERK1/2 phosphorylation compared to the untreated control [3]: 40%
effect on the cell cycle (G411 and G362 cells): G0/G1 arrest
reduction in frequency of colony forming cells in comparison to the control [4]: 40-83 fold
colony forming cell frequency, 1 in every x cells [5]: 76 cells
average tumour weight at the end point reduced by [6]: 40.9%

Clc1ccc(N2CCN(Cc3c[nH]c4ncccc34)CC2)cc1 [L-745,870]
IC50 [1]: 3.1 to 6.2 µM

Cl.Cl.Fc1ccc(N2CCN(CCC3OCCc4ccccc43)CC2)cc1 (centres unmarked) [PNU 96415E]
selectivity against GNS cells compared to NS cells [1, 8]: 8 fold
IC50 [1]: 6.25 µM
sensitivity of non-NS control cells [7]: not sensitive even at the highest concentration tested
levels of LC3B-II [2]: increase
LC3-II levels in the presence of chloroquine compared to control [2]: did not increase
autophagy substrate p62 [2]: accumulated
lowest combination index (CI) value in combination with TMZ (G481 cells): 0.32
lowest combination index (CI) value in combination with TMZ (G362 cells): 0.56
caspase 3/7 activity or cleaved PARP (GNS cells): no increase
reduction of ERK1/2 phosphorylation compared to the untreated control [3]: 40%
effect on the cell cycle (G411 and G362 cells): G0/G1 arrest
reduction in frequency of colony forming cells in comparison to the control [4]: 19-29 fold
colony forming cell frequency, 1 in every x cells [5]: 43 cells
average tumour weight at the end point reduced by [6]: 44.3%

Ifenprodil tartrate
selectivity against GNS cells compared to NS cells [1, 8]: 8 fold

PD168568
IC50 [1]: 25 to 50 µM
